These results are taken from patent US20240123016A1, “WITHANOLIDE-ENRICHED COMPOSITIONS AND METHODS OF USE THEREOF” (priority 2021, published 2024).

Assay [1] is described as follows: DPPH radical scavenging assay (antioxidant activity). To be noted: 1000 μg/ml, 30 minutes. The format is biochemical. Here is the method:
Antioxidant activity of various Ashwagandha samples was measured using a 2,2-diphenyl-1-picrylhydrazyl (DPPH) radical scavenging assay. DPPH is a stable free radical that produces violet solution in ethanol and, upon reduction by antioxidant compounds, produces light yellow-to-colorless solutions. For comparative antioxidant activity analysis of […], relative to non- branded and branded Ashwagandha compositions, two different dilutions (100 μg/ml and 1000 μg/ml) of each sample were prepared in ethanol and 500 μl of each sample dilution was mixed (1:1) with 500 μl of 0.04 mg/ml DPPH (Sigma #D9132-1G) ethanolic solution. Gallic acid (a natural polyphenolic antioxidant) and sucrose were used as positive and negative controls, respectively. All samples and controls were thoroughly vortexed and incubated for 30 minutes at room temperature in the dark followed by absorbance (Abs) readings at 517 nm using a spectrophotometer. Percentage antioxidant activity was calculated using the formula: 100-(AbsSample-AbsBlank/AbsControl×100), where AbsSample=Sample Dilution+DPPH Solution; AbsBlank=Sample Dilution+DPPH solvent; and AbsControl=Sample Solvent+DPPH Solution.
Background: Loss of DPPH colour is used to gauge radical scavenging.

A further assay deals with HEK293 cells. Nature of the assay: cells. To be noted: Homo sapiens, HEK293, read-out: IC50 for H2O2 treatment (cell viability).

Structures are written as SMILES.

Procedure for HEK293 cells: Cell viability was analyzed using the MTT assay described herein.

Take `O=C(O)c1cc(O)c(O)c(O)c1` [Gallic acid]: the “percent anti-oxidant activity (%AA)” value in assay [1] was 90.12±1.1%.

For the compound `OO` [H2O2, hydrogen peroxide], the IC50 (as a rule, the concentration at which inhibition is half-maximal) in the assay with HEK293 cells was found to be 400 µM.
